From the supplement of paper PMC4862054

Tests used:
Test in all cases: normalised viability (% of control), CellTiter-Blue; higher = more viable cells (about 100 = DMSO control)
Settings in all cases: incubation time: 72 h
[1] = tested on: CAL-148
Method: (§1)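 DSRT, CellTiter-Blue viability, 72 h incubation. Signal is normalised to DMSO and benzethonium chloride controls. Value is the normalised response at dose 8.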

[2] = tested on: CAL-51
Method: as §1

[3] = tested on: CAL-85-1
Method: as §1

[4] = tested on: DU-4475
Method: as §1

[5] = tested on: HDQ-P1
Method: as §1

[6] = tested on: MDA-MB-453
Method: as §1

[7] = tested on: CAL-148; remark: listed apart in the source
Method: (§2)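 DSRT, CellTiter-Blue viability, 72 h incubation. Signal is normalised to DMSO and benzethonium chloride controls. Value is the normalised response at dose 6.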

[8] = tested on: CAL-51; remark: listed apart in the source
Method: as §2

[9] = tested on: CAL-85-1; remark: listed apart in the source
Method: as §2

[10] = tested on: DU-4475; remark: listed apart in the source
Method: as §2

[11] = tested on: HDQ-P1; remark: listed apart in the source
Method: as §2

[12] = tested on: MDA-MB-453; remark: listed apart in the source
Method: as §2

Row | Structure (SMILES) | normalised viability [1] | normalised viability [2] | normalised viability [3] | normalised viability [4] | normalised viability [5] | normalised viability [6] | normalised viability [7] | normalised viability [8] | normalised viability [9] | normalised viability [10] | normalised viability [11] | normalised viability [12]
1 | COc1ccc(S(=O)(=O)Nc2cccnc2Nc2ccc(O)cc2)cc1 [ABT-751] (3000 nM) | 15% | 19% | 26.8% | 17.4% | 37.8% | 27.7% | – | – | – | – | – | –
2 | Cc1cc(Nc2nc(N[C@@H](C)c3ncc(F)cn3)ncc2Cl)[nH]n1 [AZD1480] (300 nM) | 106% | 98.8% | 106% | 89.3% | 122% | 94.2% | – | – | – | – | – | –
3 | CNC(=O)c1ccccc1Sc1ccc2c(/C=C/c3ccccn3)n[nH]c2c1 [Axitinib] (3000 nM) | 46% | 40.2% | 65.5% | 33.9% | 64.8% | 55.4% | – | – | – | – | – | –
4 | CC(O)(CS(=O)(=O)c1ccc(F)cc1)C(=O)Nc1ccc(C#N)c(C(F)(F)F)c1 (centres undefined) [Bicalutamide] (3000 nM) | 103% | 120% | 101% | 103% | 96.8% | 114% | – | – | – | – | – | –
5 | CCNC(=O)CCC/C=C\C[C@@H]1[C@@H](/C=C/[C@@H](O)CCc2ccccc2)[C@H](O)C[C@@H]1O [Bimatoprost] (1650 nM) | 91.1% | 111% | 102% | 120% | 97.4% | 92.4% | – | – | – | – | – | –
6 | COc1cc(Nc2c(C#N)cnc3cc(OCCCN4CCN(C)CC4)c(OC)cc23)c(Cl)cc1Cl [Bosutinib] (3000 nM) | 39.8% | 80.3% | 54.3% | 98.6% | 44.2% | 50.1% | – | – | – | – | – | –
7 | CCN(CC)CCCC(C)Nc1ccnc2cc(Cl)ccc12 (centres undefined) [Chloroquine] (297 nM) | 95.9% | 93.4% | 96% | 85.2% | 118% | 100% | – | – | – | – | – | –
8 | Cn1cc(C2=C(c3cn(C4CCN(Cc5ccccn5)CC4)c4ccccc34)C(=O)NC2=O)c2ccccc21 [Enzastaurin] (300 nM) | – | – | – | – | – | – | 79.2% | 92.3% | 90.2% | 77.5% | 45.9% | 80.6%
9 | Cn1cc(C2=C(c3cn(C4CCN(Cc5ccccn5)CC4)c4ccccc34)C(=O)NC2=O)c2ccccc21 [Enzastaurin] (3000 nM) | 69% | 88.6% | 85% | 87.3% | 89.8% | 53.6% | – | – | – | – | – | –
10 | CC(C)(C)NC(=O)[C@H]1CC[C@H]2[C@@H]3CC[C@H]4NC(=O)C=C[C@]4(C)[C@H]3CC[C@]12C [Finasteride] (300 nM) | – | – | – | – | – | – | 106% | 105% | 97.8% | 96.4% | 109% | 112%
11 | CC(C)(C)NC(=O)[C@H]1CC[C@H]2[C@@H]3CC[C@H]4NC(=O)C=C[C@]4(C)[C@H]3CC[C@]12C [Finasteride] (3000 nM) | 96.4% | 104% | 92.2% | 97% | 127% | 114% | – | – | – | – | – | –
12 | Nc1ccn([C@@H]2O[C@H](CO)[C@@H](O)C2(F)F)c(=O)n1 [Gemcitabine] (30 nM) | – | – | – | – | – | – | 42.1% | 42.9% | 58.7% | 72.8% | 74% | 60.2%
13 | Nc1ccn([C@@H]2O[C@H](CO)[C@@H](O)C2(F)F)c(=O)n1 [Gemcitabine] (300 nM) | 34.9% | 15.7% | 43.2% | 39.8% | 82.1% | 44.1% | – | – | – | – | – | –
14 | CC(C)C[C@H](NC(=O)[C@@H](COC(C)(C)C)NC(=O)[C@H](Cc1ccc(O)cc1)NC(=O)[C@H](CO)NC(=O)[C@H](Cc1c[nH]c2ccccc12)NC(=O)[C@H](Cc1cnc[nH]1)NC(=O)[C@@H]1CCC(=O)N1)C(=O)N[C@@H](CCCNC(=N)N)C(=O)N1CCC[C@H]1C(=O)NNC(N)=O [Goserelin] (300 nM) | – | – | – | – | – | – | 104% | 108% | 99.7% | 106% | 91.4% | 106%
15 | CC(C)C[C@H](NC(=O)[C@@H](COC(C)(C)C)NC(=O)[C@H](Cc1ccc(O)cc1)NC(=O)[C@H](CO)NC(=O)[C@H](Cc1c[nH]c2ccccc12)NC(=O)[C@H](Cc1cnc[nH]1)NC(=O)[C@@H]1CCC(=O)N1)C(=O)N[C@@H](CCCNC(=N)N)C(=O)N1CCC[C@H]1C(=O)NNC(N)=O [Goserelin] (3000 nM) | 99.8% | 108% | 103% | 92.5% | 106% | 122% | – | – | – | – | – | –
16 | CC(=O)[C@]1(O)Cc2c(O)c3c(c(O)c2[C@@H](O[C@H]2C[C@H](N)[C@H](O)[C@H](C)O2)C1)C(=O)c1ccccc1C3=O [Idarubicin] (30 nM) | – | – | – | – | – | – | 40.7% | 31.1% | 89.9% | 50% | 83.6% | 101%
17 | CC(=O)[C@]1(O)Cc2c(O)c3c(c(O)c2[C@@H](O[C@H]2C[C@H](N)[C@H](O)[C@H](C)O2)C1)C(=O)c1ccccc1C3=O [Idarubicin] (300 nM) | 7.71% | 20.9% | 47.1% | 7.47% | 48.7% | 68.7% | – | – | – | – | – | –
18 | C/C(=C\c1csc(C)n1)[C@@H]1C[C@@H]2O[C@]2(C)CCC[C@H](C)[C@H](O)[C@@H](C)C(=O)C(C)(C)[C@@H](O)CC(=O)N1 [Ixabepilone] (30 nM) | – | – | – | – | – | – | 99.2% | 103% | 85% | 88.9% | 71.6% | 102%
19 | C/C(=C\c1csc(C)n1)[C@@H]1C[C@@H]2O[C@]2(C)CCC[C@H](C)[C@H](O)[C@@H](C)C(=O)C(C)(C)[C@@H](O)CC(=O)N1 [Ixabepilone] (300 nM) | 87.3% | 117% | 76.5% | 92.9% | 81.6% | 89.8% | – | – | – | – | – | –
